In patent US20240384350A1, “METHODS OF TREATING CANCER WITH KINASE INHIBITORS” (BOARD OF REGENTS, THE UNIVERSITY OF TEXAS SYSTEM, priority 2021, published 2024):

Tests used:
Test in all cases: Ba/F3 drug screening, Cell Titer Glo, IC50 Mut/WT
Type in all cases: cell-based
[1] = target: T1, EGFR L833F (Homo sapiens, UniProt P00533, L833F); settings: Classical-Like, 72 hours
T1 construct: expressed in transfected cells; host or cells: Ba/F3 cells, retroviral pBabe-Puro vector
Experimental: Data represent the ratio of the IC50 value for a given TKI for cells with a classical-like EGFR mutation to the IC50 value for cells with wildtype EGFR.
(§1) Ba/F3 cell generation, drug screening, and IC50 approximations. Ba/F3 cells were obtained as a gift from Dr. Gordon Mills (MD Anderson Cancer Center), and maintained in RPMI (Sigma) containing 10% FBS, 1% penicillin/streptomycin, and 10 ng/ml recombinant mIL-3 (R&D Biosystems). To establish stable Ba/F3 cell lines, Ba/F3 cells were transduced with retroviruses containing mutant EGFR plasmids for 12-24 hours.
After 48-72 hours of transduction, 2 μg/ml puromycin (Invitrogen) was added to Ba/F3 cell lines in complete RPMI. To select for EGFR positive cell lines, cells were stained with PE-EGFR (Biolegend) and sorted by FACS. After sorting, EGFR positive cells were maintained in RPMI containing 10% FBS, 1% penicillin/streptomycin, and 1 ng/ml EGF to support cell viability. […] Shortly, cells were plated in 384-well plates (Greiner Bio-One) at 2000-3000 cells per well in technical triplicate. Seven different concentrations of TKIs or DMSO vehicle were added to reach a final volume of 40 μL per well. After 72 hours, 11 μL of Cell Titer Glo (Promega) was added to each well. Plates were incubated for a minimum of 10 minutes, and bioluminescence was determined using a FLUOstar OPTIMA plate reader (BMG LABTECH). Raw bioluminescence values were normalized to DMSO control treated cells, and values were plotted in GraphPad Prism. […] Drug screens were performed in technical triplicate on each plate and either duplicate or triplicate biological replicates.

[2] = target: T2, EGFR L858R S784F (Homo sapiens, UniProt P00533, L858R/S784F); settings: Classical-Like, 72 hours
T2 construct: expressed in transfected cells; host or cells: Ba/F3 cells, retroviral pBabe-Puro vector (vector made by GeneScript from EGFR L858R)

[3] = target: T3, EGFR S720P (Homo sapiens, UniProt P00533, S720P); settings: Classical-Like, 72 hours
T3 construct: expressed in transfected cells; host or cells: Ba/F3 cells, retroviral pBabe-Puro vector (vector made by GeneScript from EGFR WT)

[4] = target: T4, EGFR A763insFQEA (Homo sapiens, UniProt P00533, INS763FQEA); settings: Classical-Like, 72 hours
T4 construct: expressed in transfected cells; host or cells: Ba/F3 cells, retroviral pBabe-Puro vector

[5] = target: T5, EGFR D761N (Homo sapiens, UniProt P00533, D761N); settings: Classical-Like, 72 hours
T5 construct: expressed in transfected cells; host or cells: Ba/F3 cells, retroviral pBabe-Puro vector

[6] = target: T6, EGFR S768dupSVD (Homo sapiens, UniProt P00533, DUP768-770); settings: Ex20, 72 hours
T6 construct: expressed in transfected cells; host or cells: Ba/F3 cells, retroviral pBabe-Puro vector

[7] = target: T7, EGFR H773insNPH (Homo sapiens, UniProt P00533, INS773NPH); settings: Ex20, 72 hours
T7 construct: expressed in transfected cells; host or cells: Ba/F3 cells, retroviral pBabe-Puro vector
Experimental: Data represent the ratio of the IC50 value for a given TKI for cells with an ex20ins EGFR mutation to the IC50 value for cells with wildtype EGFR.
as §1
After 48-72 hours of transduction, 2 μg/ml puromycin (Invitrogen) was added to Ba/F3 cell lines in complete RPMI. To select for EGFR positive cell lines, cells were stained with PE-EGFR (Biolegend) and sorted by FACS. After sorting, EGFR positive cells were maintained in RPMI containing 10% FBS, 1% penicillin/streptomycin, and 1 ng/ml EGF to support cell viability. Drug screening was performed as previously described^41,42. Shortly, cells were plated in 384-well plates (Greiner Bio-One) at 2000-3000 cells per well in technical triplicate. Seven different concentrations of TKIs or DMSO vehicle were added to reach a final volume of 40 μL per well. After 72 hours, 11 μL of Cell Titer Glo (Promega) was added to each well. Plates were incubated for a minimum of 10 minutes, and bioluminescence was determined using a FLUOstar OPTIMA plate reader (BMG LABTECH). Raw bioluminescence values were normalized to DMSO control treated cells, and values were plotted in GraphPad Prism. […] Drug screens were performed in technical triplicate on each plate and either duplicate or triplicate biological replicates. […] Statistical differences between groups were determined by ANOVA as described in the figure legends.

[8] = target: T8, EGFR N771dupN (Homo sapiens, UniProt P00533, DUP771-771); settings: Ex20, 72 hours
T8 construct: expressed in transfected cells; host or cells: Ba/F3 cells, retroviral pBabe-Puro vector

[9] = target: T9, EGFR N771dupN G724S (Homo sapiens, UniProt P00533, DUP771-771/G724S); settings: Ex20, 72 hours
T9 construct: expressed in transfected cells; host or cells: Ba/F3 cells, retroviral pBabe-Puro vector (vector made by GeneScript from EGFR G724S, c.2313_2314insAAC)

[10] = target: T10, EGFR L747_K754del insATSPE (Homo sapiens, UniProt P00533, DEL747-749/K754E); settings: T790M-like-3S, 72 hours
T10 construct: expressed in transfected cells; host or cells: Ba/F3 cells, retroviral pBabe-Puro vector
Experimental: (§2) Data represent the ratio of the IC50 value for a given TKI for cells with a T790M-like-3S EGFR mutation to the IC50 value for cells with wildtype EGFR.
as §1
(§3) After 48-72 hours of transduction, 2 μg/ml puromycin (Invitrogen) was added to Ba/F3 cell lines in complete RPMI. To select for EGFR positive cell lines, cells were stained with PE-EGFR (Biolegend) and sorted by FACS. After sorting, EGFR positive cells were maintained in RPMI containing 10% FBS, 1% penicillin/streptomycin, and 1 ng/ml EGF to support cell viability. Drug screening was performed as previously described^41,42. Shortly, cells were plated in 384-well plates (Greiner Bio-One) at 2000-3000 cells per well in technical triplicate. Seven different concentrations of TKIs or DMSO vehicle were added to reach a final volume of 40 μL per well. After 72 hours, 11 μL of Cell Titer Glo (Promega) was added to each well. Plates were incubated for a minimum of 10 minutes, and bioluminescence was determined using a FLUOstar OPTIMA plate reader (BMG LABTECH). Raw bioluminescence values were normalized to DMSO control treated cells, and values were plotted in GraphPad Prism. […] Drug screens were performed in technical triplicate on each plate and either duplicate or triplicate biological replicates.

[11] = target: T11, EGFR T790M (Homo sapiens, UniProt P00533, T790M); settings: T790M-like-3S, 72 hours
T11 construct: expressed in transfected cells; host or cells: Ba/F3

[12] = target: T12, EGFR Ex19del T790M (Homo sapiens, UniProt P00533, DEL746-750/T790M); settings: T790M-like-3S, 72 hours
T12 construct: expressed in transfected cells; host or cells: Ba/F3
Experimental: as §2, §1, §3

[13] = target: T13, EGFR G719A T790M (Homo sapiens, UniProt P00533, G719A/T790M); settings: T790M-like-3S, 72 hours
T13 construct: expressed in transfected cells; host or cells: Ba/F3

[14] = target: T14, EGFR G719S T790M (Homo sapiens, UniProt P00533, G719S/T790M); settings: T790M-like-3S, 72 hours
T14 construct: expressed in transfected cells; host or cells: Ba/F3
Experimental: as §2, §1, §3

[15] = target: T15, EGFR Ex19del/T790M/G724S (Homo sapiens, UniProt P00533, DEL746-750/G724S/T790M); settings: T790M-like-3S, 72 hours
T15 construct: expressed in transfected cells; host or cells: Ba/F3
Experimental: as §2, §1, §3

[16] = target: T16, EGFR L858R T790M L792H (Homo sapiens, UniProt P00533, L792H/L858R/T790M); settings: T790M-like-3S, 72 hours
T16 construct: expressed in transfected cells; host or cells: Ba/F3
Experimental: as §2, §1, §3

[17] = target: T17, EGFR Ex19del T790M L718V (Homo sapiens, UniProt P00533, DEL746-750/L718V/T790M); settings: T790M-like-3S, 72 hours
T17 construct: expressed in transfected cells; host or cells: Ba/F3

[18] = target: T18, EGFR L858R/T790M/L718Q (Homo sapiens, UniProt P00533, L718Q/L858R/T790M); settings: T790M-like-3R, 72 hours
T18 construct: expressed in transfected cells; host or cells: Ba/F3

[19] = target: T19, EGFR Ex19del/T790M/L792H (Homo sapiens, UniProt P00533, DEL746-750/L792H/T790M); settings: T790M-like-3R, 72 hours
T19 construct: expressed in transfected cells; host or cells: Ba/F3
Experimental: Data represent the ratio of the IC50 value for a given TKI for cells with a T790M-like-3R EGFR mutation to the IC50 value for cells with wildtype EGFR.
as §1
After 48-72 hours of transduction, 2 μg/ml puromycin (Invitrogen) was added to Ba/F3 cell lines in complete RPMI. To select for EGFR positive cell lines, cells were stained with PE-EGFR (Biolegend) and sorted by FACS. After sorting, EGFR positive cells were maintained in RPMI containing 10% FBS, 1% penicillin/streptomycin, and 1 ng/ml EGF to support cell viability. […] Shortly, cells were plated in 384-well plates (Greiner Bio-One) at 2000-3000 cells per well in technical triplicate. Seven different concentrations of TKIs or DMSO vehicle were added to reach a final volume of 40 μL per well. After 72 hours, 11 μL of Cell Titer Glo (Promega) was added to each well. Plates were incubated for a minimum of 10 minutes, and bioluminescence was determined using a FLUOstar OPTIMA plate reader (BMG LABTECH). Raw bioluminescence values were normalized to DMSO control treated cells, and values were plotted in GraphPad Prism. […] Drug screens were performed in technical triplicate on each plate and either duplicate or triplicate biological replicates. […] Statistical differences between groups were determined by ANOVA as described in the figure legends.

[20] = target: T20, EGFR Ex19del T790M C797S (Homo sapiens, UniProt P00533, C797S/DEL746-750/T790M); settings: T790M-like-3R, 72 hours
T20 construct: expressed in transfected cells; host or cells: Ba/F3

[21] = target: T21, EGFR E709K G719S (Homo sapiens, UniProt P00533, E709K/G719S)
T21 construct: expressed in transfected cells; host or cells: Ba/F3
Experimental: (§4) Data represent the ratio of the IC50 value for a given TKI for cells with a PACC EGFR mutation to the IC50 value for cells with wildtype EGFR.
as §1, §3

[22] = target: T22, EGFR E709A G719S (Homo sapiens, UniProt P00533, E709A/G719S)
T22 construct: expressed in transfected cells; host or cells: Ba/F3

[23] = target: T23, EGFR E709A (Homo sapiens, UniProt P00533, E709A)
T23 construct: expressed in transfected cells; host or cells: Ba/F3

[24] = target: T24, EGFR V774M (Homo sapiens, UniProt P00533, V774M)
T24 construct: host or cells: Ba/F3

[25] = target: T25, EGFR L858R L718Q (Homo sapiens, UniProt P00533, L718Q/L858R)
T25 construct: host or cells: Ba/F3
Experimental: as §4, §1, §3

[26] = target: T26, EGFR Ex19del G796S (Homo sapiens, UniProt P00533, DEL746-750/G796S)
T26 construct: expressed in transfected cells; host or cells: Ba/F3

[27] = target: T27, EGFR Ex19del L718Q (Homo sapiens, UniProt P00533, DEL746-750/L718Q)
T27 construct: expressed in transfected cells; host or cells: Ba/F3
Experimental: as §4, §1, §3

ratio of IC50 for cells with mutant EGFR to IC50 for cells with wildtype EGFR (Mut/WT) [1] | ratio of IC50 for cells with mutant EGFR to IC50 for cells with wildtype EGFR (Mut/WT) [2] | ratio of IC50 for cells with mutant EGFR to IC50 for cells with wildtype EGFR (Mut/WT) [3] | ratio of IC50 for cells with mutant EGFR to IC50 for cells with wildtype EGFR (Mut/WT) [4] | ratio of IC50 for cells with mutant EGFR to IC50 for cells with wildtype EGFR (Mut/WT) [5] | ratio of IC50 for cells with mutant EGFR to IC50 for cells with wildtype EGFR (Mut/WT) [6] | ratio of IC50 for cells with mutant EGFR to IC50 for cells with wildtype EGFR (Mut/WT) [7] | ratio of IC50 for cells with mutant EGFR to IC50 for cells with wildtype EGFR (Mut/WT) [8] | ratio of IC50 for cells with mutant EGFR to IC50 for cells with wildtype EGFR (Mut/WT) [9] | ratio of IC50 for cells with mutant EGFR to IC50 for cells with wildtype EGFR (Mut/WT) [10] | ratio of IC50 for cells with mutant EGFR to IC50 for cells with wildtype EGFR (Mut/WT) [11] | ratio of IC50 for cells with mutant EGFR to IC50 for cells with wildtype EGFR (Mut/WT) [12] | ratio of IC50 for cells with mutant EGFR to IC50 for cells with wildtype EGFR (Mut/WT) [13] | ratio of IC50 for cells with mutant EGFR to IC50 for cells with wildtype EGFR (Mut/WT) [14] | ratio of IC50 for cells with mutant EGFR to IC50 for cells with wildtype EGFR (Mut/WT) [15] | ratio of IC50 for cells with mutant EGFR to IC50 for cells with wildtype EGFR (Mut/WT) [16] | ratio of IC50 for cells with mutant EGFR to IC50 for cells with wildtype EGFR (Mut/WT) [17] | ratio of IC50 for cells with mutant EGFR to IC50 for cells with wildtype EGFR (Mut/WT) [18] | ratio of IC50 for cells with mutant EGFR to IC50 for cells with wildtype EGFR (Mut/WT) [19] | ratio of IC50 for cells with mutant EGFR to IC50 for cells with wildtype EGFR (Mut/WT) [20] | SMILES | also measured
0.1863 | 0.06448 | 0.03879 | 0.0379 | 0.0008794 | 0.882 | 1.645 | 6.261 | 3.161 | 5.465 | 6.061 | 4.871 | 0.9195 | 3.776 | 9.95 | 8.291 | 89.62 | 45.78 | 48.51 | 38.03 | COc1cc2ncnc(Nc3ccc(F)c(Cl)c3)c2cc1NC(=O)/C=C/CN1CCCCC1 [Dacomitinib] | ratio of IC50 for cells with mutant EGFR to IC50 for cells with wildtype EGFR (Mut/WT) ([21]; PACC, E709K G719S, Ba/F3, 72 hours): 0.001358; ratio of IC50 for cells with mutant EGFR to IC50 for cells with wildtype EGFR (Mut/WT) ([22]; PACC, E709A G719S, Ba/F3, 72 hours): 0.001614; ratio of IC50 for cells with mutant EGFR to IC50 for cells with wildtype EGFR (Mut/WT) ([23]; PACC, E709A, Ba/F3, 72 hours): 0.04024; ratio of IC50 for cells with mutant EGFR to IC50 for cells with wildtype EGFR (Mut/WT) ([24]; PACC, V774M, Ba/F3, 72 hours): 0.04513; ratio of IC50 for cells with mutant EGFR to IC50 for cells with wildtype EGFR (Mut/WT) ([25]; PACC, L858R L718Q, Ba/F3, 72 hours): 0.051; ratio of IC50 for cells with mutant EGFR to IC50 for cells with wildtype EGFR (Mut/WT) ([26]; PACC, Ex19del G796S, Ba/F3, 72 hours): 0.2371; ratio of IC50 for cells with mutant EGFR to IC50 for cells with wildtype EGFR (Mut/WT) ([27]; PACC, Ex19del L718Q, Ba/F3, 72 hours): 0.03226
0.03054 | 0.1921 | 0.03397 | 0.1912 | 0.1966 | 1.135 | 1.077 | 3.012 | 2.781 | 0.00433 | 0.4037 | 0.009604 | 0.08702 | 0.1409 | 0.02849 | 0.03529 | 0.02994 | 0.6815 | 4.634 | 14.64 | C=CC(=O)N1CC[C@@H](Oc2nc(Nc3ccc(N4CCC(N5CCN(C)CC5)CC4)cc3)c(C(N)=O)nc2CC)C1 [Naquotinib] | ratio of the IC50 value for cells with a PACC EGFR mutation to the IC50 value for cells with wildtype EGFR ([21]; Ba/F3 cells, EGFR E709K G719S (PACC), Mut/WT): 0.5339; ratio of the IC50 value for cells with a PACC EGFR mutation to the IC50 value for cells with wildtype EGFR ([22]; Ba/F3 cells, EGFR E709A G719S (PACC), Mut/WT): 0.3574; ratio of the IC50 value for cells with a PACC EGFR mutation to the IC50 value for cells with wildtype EGFR ([23]; Ba/F3 cells, EGFR E709A (PACC), Mut/WT): 0.0743; ratio of the IC50 value for cells with a PACC EGFR mutation to the IC50 value for cells with wildtype EGFR ([24]; Ba/F3 cells, EGFR V774M (PACC), Mut/WT): 0.2862; ratio of the IC50 value for cells with a PACC EGFR mutation to the IC50 value for cells with wildtype EGFR ([25]; Ba/F3 cells, EGFR L858R L718Q (PACC), Mut/WT): 5.547; ratio of the IC50 value for cells with a PACC EGFR mutation to the IC50 value for cells with wildtype EGFR ([26]; Ba/F3 cells, EGFR Ex19del G796S (PACC), Mut/WT): 1.137; ratio of the IC50 value for cells with a PACC EGFR mutation to the IC50 value for cells with wildtype EGFR ([27]; Ba/F3 cells, EGFR Ex19del L718Q (PACC), Mut/WT): 0.05586
